{"source": "a melting point compilation (Tetko et al.; mined from patent text by program, amines drawn as free bases though some values may be those of a salt)"}
{"units": {"melting point": "°C"}}
{"smiles": "CC(=O)N(C)C(Cc1ccncc1)C(=O)O", "note": "(configuration not stated)", "melting point": "86 to 88"}
{"smiles": "CCOC(=O)c1c2n(c3cc(N4CCN(CC(C)=O)CC4)c(F)cc3c1=O)CS2", "melting point": "170 to 172"}
{"smiles": "O=[N+]([O-])c1ccc(Cl)c(NC(=S)NCCCO)c1", "melting point": 127}
{"smiles": "Cc1ccc(C=CCC#N)cc1", "melting point": "60 to 61"}
{"smiles": "CSc1ccc2c(c1)Cc1ccc(C=O)cc1O2", "melting point": "122 to 123"}
{"smiles": "O=C(O)CCCCCCOc1ccc(-c2ccccc2)cc1", "melting point": "78 to 79"}
{"smiles": "Cc1cc2c(-c3ccccc3)c(C(=O)NCc3cc(C(F)(F)F)cc(C(F)(F)F)c3)n(CC(N)=O)c(=O)c2cc1C", "melting point": "235 to 237"}
{"smiles": "Cc1cc(-c2cc(C(F)(F)F)nn2-c2ccc(S(C)(=O)=O)c(F)c2)ccc1-c1cscn1", "melting point": "112 to 114"}
{"smiles": "CN1CC(=O)N(SC(Cl)(Cl)Cl)C1=O", "melting point": "110 to 112"}
{"smiles": "O=C(Nc1ccc(C(F)(F)F)cc1)Nc1cccc(S(=O)(=O)NCCN2CCOCC2)c1", "melting point": "62 to 65"}
{"smiles": "CC(C)COC1OC(CO)C(O)C(O)C1(O)N(C(=O)N(CCCl)N=O)C1CCCCC1", "note": "(configuration not stated)", "melting point": "87 to 89"}
{"smiles": "NC(=O)c1cccc(OCCCl)c1", "melting point": "125 to 126"}
{"smiles": "CS(=O)(=O)Cc1ccc2oc([N+](=O)[O-])c(-c3ccccc3)c2c1", "melting point": "178 to 181"}
{"smiles": "Cc1ccc(S(=O)(=O)n2ccc3c(Cl)ncnc32)cc1", "melting point": 143}
{"smiles": "C=CCN(CC=C)C(=O)C(C#N)(CC)c1ccccc1", "note": "(configuration not stated)", "melting point": "33 to 35"}
{"smiles": "CC(C)(C)OC(=O)NC1Cc2cccc3[nH]c(=O)n(c23)C1", "note": "(configuration not stated)", "melting point": "235 to 236"}
{"smiles": "CCCC(=O)Nc1ccccc1Oc1cc(-c2ccc(C(F)(F)F)cc2)ncn1", "melting point": 112}
{"smiles": "COC1=C(OC)C(=O)C2=C(CC(CCCCOc3ccc(C(=O)N4CCOCC4)cc3)C2)C1=O", "melting point": "128 to 131"}
{"smiles": "CC1CCN(c2c(-c3c(F)cc(F)cc3F)c(Cl)nc3nc(S)nn23)CC1", "melting point": 194}
{"smiles": "C=CCn1[nH]c2cc(OC)ccc2c1=O", "melting point": 126}
{"smiles": "O=C1OC(c2ccccc2)=NC1=Cc1ccc(Oc2ccccc2)cc1", "melting point": "156 to 158"}
{"smiles": "O=S1(=O)c2cccc3cccc(c23)N1CCCN1CCN(c2ccc(O)cc2)CC1", "melting point": 185}
{"smiles": "CCCCCCCCn1c(C2=CC(=O)c3ccccc3C2=O)ccc1C1=CC(=O)c2ccccc2C1=O", "melting point": "75 to 76"}
{"smiles": "COc1ccc(-c2cc(Oc3c(C)cc(C)cc3C)nc(C)n2)cc1OC", "melting point": "122 to 125"}
{"smiles": "CCOC(=O)c1cnoc1-c1ccc(Cl)cc1Cl", "melting point": "82 to 84"}
{"smiles": "CCCC1(OC(C)=O)CCC2C3CCC4CC(=O)CC(C)C4(C)C3CCC21C", "note": "(configuration not stated)", "melting point": "128 to 129"}
{"smiles": "Cc1cccc(NC(=O)NCCC(=O)N(c2ccccc2)c2ccccc2)c1", "melting point": 179}
{"smiles": "O=C1c2ccccc2C(=O)c2sc(-c3cccs3)nc21", "melting point": "> 260"}
{"smiles": "CCOC(=O)c1cnc(CCOC)nc1NCc1ccc(-c2ccccc2-c2nnnn2C(c2ccccc2)(c2ccccc2)c2ccccc2)cc1", "melting point": "128 to 130"}
{"smiles": "CC(C)C(NC(=O)Cn1cccc(NC(=O)Oc2ccc(Cl)cc2)c1=O)C(=O)C(F)(F)F", "note": "(configuration not stated)", "melting point": "137 to 139"}
{"smiles": "CC(=O)Nc1ccc(-n2nc(C(=O)NC(C)(C)C)c3c2C2CCC3C2)cc1", "note": "(configuration not stated)", "melting point": "122 to 124"}
{"smiles": "CC1(C)OC(=O)Nc2ccc(-c3ccc(C#N)o3)cc21", "melting point": "257 to 260"}
{"smiles": "O=C(N[C@@H](CO)C(=O)NCCCCOC1CCCCC1)c1ccc(C(=O)c2cccnc2)cc1", "melting point": "55 to 61"}
{"smiles": "COc1ccc2[nH]c3cc(-c4ccccc4-c4ccccc4)c4c(c3c2c1)C(=O)NC4=O", "melting point": "220 to 223"}
{"smiles": "CCNC(=O)c1ccc2oc(C(=O)C(Cc3ccccc3)NC(=O)Cn3c(-c4ccc(F)cc4)ncc(NC(=O)OCc4ccccc4)c3=O)nc2c1", "note": "(configuration not stated)", "melting point": "256 to 261"}
{"smiles": "CC(c1c[nH]cn1)C(N)CO", "note": "(configuration not stated)", "melting point": 168}
{"smiles": "Cn1c2cc(Cl)ncc2c(=O)n2nccc12", "melting point": "> 300"}
{"smiles": "N#CC(c1ccccn1)C1CCCCC1O", "note": "(configuration not stated)", "melting point": "110 to 112"}
{"smiles": "CCOP(=O)(CSCCOn1cnc2c(N3C(=O)c4ccccc4C3=O)ncnc21)OCC", "melting point": "115 to 116"}
{"smiles": "COc1ccc(Cc2nc3c(N)nc4ccccc4c3n2CCCCNS(C)(=O)=O)cc1", "melting point": "78.1 to 79.5"}
{"smiles": "COc1ccc([N+](=O)[O-])c(N2CCCC2)c1", "melting point": "46 to 48.5"}
{"smiles": "CC(Oc1ccc(Oc2ccc(C(F)(F)F)cc2)cc1)C(=O)O", "note": "(configuration not stated)", "melting point": "138 to 140"}
{"smiles": "CCCn1c(COCC)nc2c(N)nc3cc(OCc4ccccc4)ccc3c21", "melting point": "188 to 189"}
{"smiles": "CCCCn1cc(C(=O)C(=O)O)c2cc(-c3cccc(OC)c3)ccc21", "melting point": "108 to 109"}
{"smiles": "COc1cc2c(cc1Nc1ncc(Cl)c(Nc3ccc(N(C)C)cc3OC)n1)CCN(CC(=O)N1CCN(C)CC1)CC2", "melting point": 145}
{"smiles": "O=C(Nc1ccc(C(F)(F)F)cc1)C1=NN(c2ccc(Cl)c(Cl)c2)C(c2ccc(F)cc2)C1", "note": "(configuration not stated)", "melting point": "242 to 243"}
{"smiles": "Cc1ccc2c(O)c(CS(C)(=O)=O)cnc2c1", "melting point": "285 to 290"}
{"smiles": "COc1cc(COc2cc(C(=O)O)n(-c3ccccc3)n2)ccc1OCc1nc(-c2ccccc2)oc1C", "melting point": "192 to 193"}
{"smiles": "NNc1ncc(-c2ccccc2)cn1", "melting point": 155}
{"smiles": "CCCOC(=O)C=CC1C(C(=O)O)C1(C)C", "note": "(configuration not stated)", "melting point": 59}
{"smiles": "CN1C2C=C(c3cc4ccccc4s3)CC1CCC2", "note": "(configuration not stated)", "melting point": "91.3 to 93.5"}
{"smiles": "COc1ccc2c(c1OC)CCN(CCc1ccc(NC(=O)c3cccc4c(=O)c5cccc(OC)c5[nH]c34)cc1)C2", "melting point": "235 to 237"}
{"smiles": "CS(=O)(=O)N(N)C(=O)c1cc([N+](=O)[O-])c(C(F)(F)F)cc1N", "melting point": "221 to 227"}
{"smiles": "CCCCCCCCCCCCCCCCCCOc1cn(Cc2ccccc2)c(CO)cc1=O", "melting point": "120 to 121"}
{"smiles": "Nc1ncccc1C(=O)NCC1CCN(C[C@H]2COc3ccc4[nH]ccc4c3O2)CC1", "melting point": "104 to 106"}
{"smiles": "Cc1c(C)c(N(C)C(=O)CC(C)(C)C)c(C)c2c1OCC2c1ccc(C(C)C)cc1", "note": "(configuration not stated)", "melting point": "80 to 82"}
{"smiles": "CS(=O)(=O)OCC1CN(c2ccc3ccccc3c2)C(=O)O1", "note": "(configuration not stated)", "melting point": "169 to 172"}
{"smiles": "COC(=O)c1ccc(OC)c2c(I)c(OC)ccc12", "melting point": "120 to 122"}
{"smiles": "CN=C(SC)N(C)Cc1cc(C)nc(C)c1", "melting point": "131 to 133"}
{"smiles": "CS(=O)(=O)c1ccc(-c2cnn(-c3ccc(C#N)cc3)c(=O)c2-c2ccc(F)cc2)cc1", "melting point": "273 to 278"}
{"smiles": "CCN(CC)CC(C)N1c2ccccc2Sc2ccc(C(=S)NCCC(C)C)cc21", "note": "(racemic)", "melting point": 80}
{"smiles": "ONc1cc(Cl)ccc1Cl", "melting point": 124}
{"smiles": "CN(CCc1c[nH]c2ccccc12)C(=O)CCCC(=O)O", "melting point": "125 to 126"}
{"smiles": "CCCCc1cn(CC2OC(n3cnc4c(NCc5ccc(OC)cc5)ncnc43)C(O)C2O)nn1", "note": "(configuration not stated)", "melting point": 105}
{"smiles": "Cc1ccc(-c2c(C(=O)NCc3cc(C(F)(F)F)cc(C(F)(F)F)c3)n(CCO)c(=O)c3ncccc23)cc1", "melting point": "123 to 125"}
{"smiles": "COc1ccc(COc2c(C)c(C)c3c(c2C)C(c2ccc(N4CCN(C)CC4)cc2)C(C)(C)O3)cc1", "note": "(configuration not stated)", "melting point": "121 to 122"}
{"smiles": "CSC(Cc1ccc(OCCN(C)c2nc3ccccc3o2)cc1)C(=O)O", "note": "(configuration not stated)", "melting point": "140 to 141"}
{"smiles": "COc1cc(C2CCN(C(=O)C3CCN3)CC2)ccc1Nc1ncc2ccc(-c3ccccc3N(C)S(C)(=O)=O)n2n1", "note": "(configuration not stated)", "melting point": "111 to 116"}
{"smiles": "CCc1c(-c2ccc(OC)cc2)c2c(C(=O)N(C)CCN(C)C)c(C(=O)O)c3cc(OC)cc1n32", "melting point": "221 to 223"}
{"smiles": "Cc1ccccc1N1CC(=O)N(C)C(=O)N1", "melting point": "147 to 148"}
{"smiles": "CC(=O)Nc1cc([N+](=O)[O-])c(C(=O)O)c([N+](=O)[O-])c1O", "melting point": "199 to 203"}
{"smiles": "Cc1ccc(S(=O)(=O)N2CCC[C@@H]2C(=O)N[C@H](Cc2ccccc2)C(=O)O)cc1", "melting point": "71 to 75"}
{"smiles": "O=C1N(Cc2cc3ccccc3o2)c2ccccc2C12COc1cc3c(cc12)OCO3", "note": "(configuration not stated)", "melting point": "167 to 168"}
{"smiles": "COc1ccc2[nH]c(S(=O)Cc3ncc(C)c(N4CCOCC4)c3Cl)nc2c1", "note": "(configuration not stated)", "melting point": "147 to 148"}
{"smiles": "O=C1CCCc2nc(N3CCN(Cc4ccccc4)CC3)ncc2N1", "melting point": 211}
{"smiles": "COC(=O)C(Cc1ccc(OC)c(C(=O)NCc2ccc(C(F)(F)F)cc2)c1)S(C)(=O)=O", "note": "(configuration not stated)", "melting point": "144 to 145"}
{"smiles": "CCNC(=O)CCC(=O)c1ccc(NS(C)(=O)=O)cc1", "melting point": "210 to 213"}
{"smiles": "Cc1ccc(S(=O)(=O)N2CCCC2c2cccc(F)c2)cc1", "note": "(racemic)", "melting point": 116}
{"smiles": "O=S(=O)(c1cccc2ccccc12)c1n[nH]c2ccc(OCC3CCCNC3)cc12", "note": "(configuration not stated)", "melting point": "168 to 170"}
{"smiles": "NC(CCO)C1(c2ccc(Cl)cc2)CCC1", "note": "(configuration not stated)", "melting point": "98 to 99"}
{"smiles": "CCCOCCOc1ccc(-c2ccc3c(c2)C=C(C(=O)OC)CCN3c2ccccc2)cc1", "melting point": "117 to 119"}
{"smiles": "CCOC(=O)C(=CN(C)C)C(=O)c1cc(F)c(Cl)cc1Cl", "melting point": "94 to 95"}
{"smiles": "COc1ccc(C=O)cc1C(C)(C)C", "melting point": 52}
{"smiles": "Cc1oc(-c2ccccc2)nc1CCC(N)=S", "melting point": "167 to 168"}
{"smiles": "CC(=O)N(C)c1cccc(-c2ccnc3c(C#N)cnn23)c1", "melting point": "195 to 197"}
{"smiles": "CCN(CC)C(=O)c1cc2ccccc2c(-c2cccc(C(F)(F)F)c2)n1", "melting point": 76}
{"smiles": "BrCCCCCCOc1ccc(C2c3ccc(OCc4ccccc4)cc3OCC2c2ccccc2)cc1", "note": "(configuration not stated)", "melting point": "96.2 to 96.7"}
{"smiles": "CCCCc1nnc(SCc2ccc(Cl)cc2)n1Cc1ccc(OC(C(=O)O)c2ccccc2)cc1", "note": "(configuration not stated)", "melting point": "66 to 67"}
{"smiles": "CCOC(=O)CNC(=O)Oc1c(Cl)cc(Cl)c2cccnc12", "melting point": 120}
{"smiles": "CC1=NN(c2ccc(Cl)cc2)C(=O)C1C(=O)Nc1ccc(F)cc1", "note": "(configuration not stated)", "melting point": "109 to 113"}
{"smiles": "C=CCOc1ccc(C)c2c1C(C)(C)C(=O)N2", "melting point": "153 to 155"}
{"smiles": "CC(C)(C)OC(=O)N1CCN(Cc2nc(-c3cc(C(C)(C)C)c(O)c(C(C)(C)C)c3)cs2)CC1", "melting point": "108 to 109"}
{"smiles": "O[C@@H]1CCCC[C@H]1Nc1nc(Cl)ncc1Cl", "note": "(relative stereo)", "melting point": "139 to 142"}
{"smiles": "CCOC(=O)c1cnn2c(-c3cccc(C)n3)ccnc12", "melting point": "135 to 137"}
{"smiles": "COC(=O)c1ccc(OCCNC(=O)C2Cc3ccccc3N2S(=O)(=O)c2ccc(-c3ccc(F)cc3C)cc2)cc1F", "note": "(configuration not stated)", "melting point": "66 to 75"}
{"smiles": "CN(C)C(=S)N1C=CC=NC1N", "note": "(configuration not stated)", "melting point": "134 to 136"}
{"smiles": "CC(C)(C)c1cc(Cl)c2c(c1)C=NS(=O)(=O)O2", "melting point": "127 to 130"}
